# According to paper PMC7170889, “Synthesis and evaluation of designed PKC modulators for enhanced cancer immunotherapy” (Nature Communications, 2020):
# Assays:
# PKCδ-GFP fusion protein = target: T1, PKCδ-GFP fusion protein (Homo sapiens, UniProt Q05655); test: PKCδ-GFP translocation assay in living CHO-k1 cells (confocal microscopy); type: cell-based, Chinese hamster; details: for Emax at 1 µM: CHO-K1, 1000 nM compound; for Emax at 1 µM / Emax at 0.2 µM: read-out: % Translocation (maximum translocation of PKCδ-GFP to the plasma membrane); for minimum effective concentration required to induce translocation of PKC-GFP to the membrane: tested at 200 and 1000 nM; for Emax at 0.2 µM: CHO-K1, 200 nM compound; for PKC activation dynamics (shape of translocation curve): Fig. 5c, d
# T1 construct: expressed in transfected cells; host or cells: CHO-k1 (Chinese hamster ovary, ATCC)
# T1 sequence (Q05655 whole entry, the tested form may be a part): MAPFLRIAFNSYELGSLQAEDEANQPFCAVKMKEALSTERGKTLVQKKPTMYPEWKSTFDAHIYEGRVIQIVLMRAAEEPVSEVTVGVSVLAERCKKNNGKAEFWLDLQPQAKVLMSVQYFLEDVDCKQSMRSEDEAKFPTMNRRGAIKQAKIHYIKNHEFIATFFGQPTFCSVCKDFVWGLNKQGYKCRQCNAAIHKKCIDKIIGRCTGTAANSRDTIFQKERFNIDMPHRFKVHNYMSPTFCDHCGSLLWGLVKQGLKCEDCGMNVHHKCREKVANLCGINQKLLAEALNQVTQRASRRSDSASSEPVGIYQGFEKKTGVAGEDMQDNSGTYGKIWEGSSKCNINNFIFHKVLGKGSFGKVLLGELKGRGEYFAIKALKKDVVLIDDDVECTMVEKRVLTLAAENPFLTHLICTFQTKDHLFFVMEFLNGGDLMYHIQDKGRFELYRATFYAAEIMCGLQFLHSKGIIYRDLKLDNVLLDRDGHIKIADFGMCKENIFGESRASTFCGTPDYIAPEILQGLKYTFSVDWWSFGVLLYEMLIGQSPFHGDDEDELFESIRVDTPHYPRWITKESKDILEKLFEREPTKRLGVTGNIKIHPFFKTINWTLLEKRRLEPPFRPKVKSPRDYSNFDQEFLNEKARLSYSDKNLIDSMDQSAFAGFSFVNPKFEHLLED
# Procedure: (§1) With a panel of compounds bearing diverse functionality at C13, we began to explore how these modifications affect PKC binding and biological function. Because an obvious prerequisite for PKC pathway involvement is binding to PKC, compounds were initially evaluated for PKC affinity in a cell-free competitive binding assay with tritiated phorbol dibutyrate ([^3H]-PDBu). Assays were performed with representative members of both the conventional (PKCα) and novel (PKCδ) PKC families. Subsequently, compounds were assayed for PKC isoform translocation in real time in living cells using an optical assay. Translocation to the plasma membrane is the hallmark of PKC activation[18],[57],[60] and therefore monitoring the subcellular localization of a PKCδ-GFP fusion protein via confocal microscopy offers a convenient method for determining whether a compound enters a cell and engages its PKC isoform target. Finally and of clinical significance, we also determined the effect of compounds on CD22 surface expression in vitro in NALM6 cells, an ALL cell line previously studied in connection with CD22-targeted CAR T cell therapy, and two additional lymphoma cell lines[11],[31],[65].
# Scale bar represents 25 μm. Experiments performed in n = 3 biological replicates. b–d Cytosolic fluorescence normalized to t = 0 (time immediately prior to addition of compound to media) and plotted against time. Error bars excluded for clarity (data presented as the mean of n = 3 biological replicates). Individual curves with error bars included in Supplementary Information.
# PKCδ-GFP Translocation Assay Protocol
# Chinese hamster ovary factor K1 (CHO-k1, ATCC) cells were cultured in F-12 Kaighn’s media (Hyclone, 10% fetal bovine serum, 1% penicillin/streptomycin added, reffered to as F-12 +/+ below) at 37 ° C in an incubator (5% CO2). Cell cultures were maintained by splitting cells 1:3 when they reached ~75-100% confluence (every 2-3 days) as follows:
# (Gibco) was used to remove the cells from the culture flask (T75, Falcon). 1 mL of the cell suspension was then added to 9 mL of fresh F-12 +/+ and the sample was sub-cultured until reaching confluence (~2-3 days).
# Cells were counted using a Countess II Automated Cell Counter (Fisher). The cell suspension was diluted to 240,000 cells/mL with fresh F-12 +/+ and 2.5 mL of this diluted stock was added to one well in a 6-well plate. The cells were then cultured for 24 hours.
# Cells were transfected with Lipofectamine 2000 reagent (Invitrogen) or DA 13:11 at a 10:1 charge […]
# F-12 +/+ was aspirated and cells were washed with F-12 -/-. 2 mL of fresh F-12 -/- was then added to each well, taking care not to disturb adherent cells. For each well of CHO-k1 cells, 12.5 µL Lipofectamine 2000 reagent (Invitrogen) was added to 250 µL Opti-MEM reduced serum media (Invitrogen) in a polypropylene tube and incubated for 20 minutes at RT. Meanwhile, for each well, 4 µg of PKCδ-GFP pDNA and 250 µL Opti-MEM reduced serum media was added to a separate polypropylene tube. 250 µL of the Lipofectamine 2000 suspension was added to the DNA suspension and the solution incubated for 30 minutes at RT. 500 µL of the Lipofectamine/DNA suspension was added to the respective wells of the 6-well plate. The cells were then incubated at 37 ° C (5% CO2) for ~24 hrs.
# F-12 +/+ was aspirated and cells were washed with F-12 -/-. 2.4 mL of fresh F-12 -/- was then added to each well, taking care not to disturb adherent cells. A 4 µg aliquot of PKCδ-GFP pDNA was added to PBS (pH 5.5, final volume 100 µL). 5.6 µL of DA 13:11 (2 mM stock in DMSO) was then added to the DNA solution, and the mixture was gently mixed (by flicking) for 20 seconds, at which point it was added directly to the respective wells of the 6-well plate.
# PKC = PKC competitive binding assay, isoform not specified; parameters: species or system human; details: conventional and novel PKC isoforms
# Procedure: as §1
# PKC Binding Assay Protocol […]
# competition with 3H-phorbol-12,13-dibutyrate (3H-PDBu) as described below. This procedure entails a glass-fiber filtration method to determine bound radioligand.
# Preparation of PKC binding assay buffer
# To a 50 mL polypropylene tube was added Tris-HCl (pH 7.4, 1 M, 1 mL), KCl (1 M, 2 mL), CaCl2 (0.1 M, 30 μL), and bovine serum albumin (BSA, 40 mg, Sigma-Aldrich). This mixture was diluted to 20 mL with deionized H2O and mixed gently. The buffer was stored on ice until use. The final […]
# Supplementary Table1. PKC binding assay buffer composition.
# Preparation of phosphatidylserine (PS) vesicles
# For every two assays, 3.5 mg phosphatidylserine (Avanti Polar Lipids, porcine, 25 mg/mL CHCl3 solution) was concentrated by removing chloroform under a stream of nitrogen followed by reduced pressure. The solid PS was suspended as vesicles in freshly prepared PKC binding assay buffer (3.5 mL) by sonicating six times for 30 sec, with a 30 sec rest between sonications (Branson Sonifier 250, power = 2, 50% duty cycle). The resulting milky cloudy mixture (1 mg/mL) was stored […]
# Preparation of PKC isoform solution
# Assay PKC was prepared by dissolving a 4 μg aliquot of the indicated recombinant human PKC isoform (Invitrogen) into 11.6 mL of PKC binding assay buffer (this amount is sufficient for two assays). The diluted PKC was stored on ice for immediate use.
# Preparation of 3H-PDBu solution
# 3H-PDBu (American Radiolabeled Chemicals, Inc.; 1 mCi/mL acetone solution; specific activity: […]) was diluted 10-fold with DMSO. The resulting 500 nM stock solution was further diluted with DMSO to 30 nM.
# Preparation of analog compound dilutions
# Compound dilutions were prepared by serially diluting from a chosen "high" concentration by factors of 3 or 4. For each analog compound, seven concentrations were used to define the […]
# To a polypropylene tube was added 3.3 mL of 1 mg/mL PS vesicles solution, 11 mL of PKC isoform solution, and 1.1 mL of 30 nM 3H-PDBu solution were added. The resulting solution was vortexed to mix and stored on ice.
# PKC binding assay protocol
# - Glass-fiber filters (Whatman GF/B) were prepared by soaking them in a solution of […]
SMILES,activity in the PKC translocation assay at 200 nM (PKCδ-GFP fusion protein; 200 nM),minimum effective concentration required to induce translocation of PKC-GFP to the membrane (PKCδ-GFP fusion protein; CHO-k1 cells),"Emax at 0.2 µM (PKCδ-GFP fusion protein; CHO-k1 cells, n = 3)",other results
CCCC=CC=CC(=O)OC1C(=CC(=O)OC)CC2CC(C(C)O)OC(=O)CC(O)CC3CC(OC(C)=O)C(C)(C)C(O)(CC4CC(OC(=O)CCc5c[nH]c6ccccc56)CC(C=CC(C)(C)C1(O)O2)O4)O3 (stereo not shown) [SUW210],inactive,1000 nM,–,"Emax at 1 µM (PKCδ-GFP fusion protein; CHO-k1 cells, n = 3): 75%"
CCC/C=C/C=C/C(=O)O[C@H]1/C(=C/C(=O)OC)C[C@H]2C[C@H]([C@@H](C)O)OC(=O)C[C@H](O)C[C@@H]3C[C@H](OC(C)=O)C(C)(C)[C@](O)(C[C@@H]4C[C@@H](OC(C)=O)C[C@H](/C=C/C(C)(C)[C@]1(O)O2)O4)O3 [SUW207],–,200 nM,60%,–
CCCC=CC=CC(=O)OC1C(=CC(=O)OC)CC2CC(C(C)O)OC(=O)CC(O)CC3CC(OC(C)=O)C(C)(C)C(O)(CC4CC(=CC(=O)OCC)CC(C=CC(C)(C)C1(O)O2)O4)O3 (stereo not shown) [SUW217],–,200 nM,75%,–
CCCC=CC=CC(=O)OC1C(=CC(=O)OC)CC2CC(C(C)O)OC(=O)CC(O)CC3CC(OC(C)=O)C(C)(C)C(O)(CC4CC(OC(=O)Nc5ccccc5)CC(C=CC(C)(C)C1(O)O2)O4)O3 (stereo not shown) [SUW208],effectively translocated PKC to the plasma membrane,200 nM,75%,time required for translocation (PKCδ-GFP fusion protein; 200 nM): ~ 15 min; PKC activation dynamics (shape of translocation curve) (PKCδ-GFP fusion protein): delayed activation patterns
CCCC=CC=CC(=O)OC1C(=CC(=O)OC)CC2CC(C(C)O)OC(=O)CC(O)CC3CC(OC(C)=O)C(C)(C)C(O)(CC4CC(OC(=O)CC56CC7CC(CC(C7)C5)C6)CC(C=CC(C)(C)C1(O)O2)O4)O3 (stereo not shown) [SUW209],inactive,1000 nM,–,"Emax at 1 µM (PKCδ-GFP fusion protein; CHO-k1 cells, n = 3): 60%"
CCCC=CC=CC(=O)OC1C(=CC(=O)OC)CC2CC(C(C)O)OC(=O)CC(O)CC3CC(OC(C)=O)C(C)(C)C(O)(CC4CC(=CC(=O)OCC)CC(C=CC(C)(C)C1(O)O2)O4)O3 (stereo not shown) [SUW218],–,200 nM,–,"% Translocation (maximum translocation of PKCδ-GFP to the plasma membrane) (PKCδ-GFP fusion protein; 200 nM compound, CHO-k1 cells, n = 3): 55%; PKC activation dynamics (shape of translocation curve) (PKCδ-GFP fusion protein): more sustained linear activation dynamics"
CCCCCC#CC(=O)O[C@H]1/C(=C/C(=O)OC)C[C@H]2C[C@H]([C@@H](C)O)OC(=O)C[C@H](O)C[C@@H]3C[C@H](OC(C)=O)C(C)(C)[C@](O)(C[C@@H]4C[C@H](O)C[C@H](/C=C/C(C)(C)[C@]1(O)O2)O4)O3 [SUW204],–,200 nM,25%,"cytosolic PKC translocated to the plasma membrane (PKCδ-GFP fusion protein; 200 nM, at 20 min): ~ 25%; PKC binding affinity in words (PKC): single-digit nanomolar"
